The source of these data is US8193235B2, “Compositions and methods for establishing and maintaining stem cells in an undifferentiated state” (University of Kansas, priority 2009, dated 2012).

Data set [1] has as its system human ES cells (H9 cells). The data set can be described thus: Human ES cells in feeder-free culture, MEF-conditioned medium. In kind it is cell-based.
In another data set the test system is ERK1/2. The data set can be described thus: ERK1/2 phosphorylation in ES cells. Conditions: Gö6983 alone. In kind it is cell-based, mouse. As to the method:
(§1) E14 ES Cell Cultures. Cells were grown in ES-IMDM media (Lonza, Walkersville, Md.) in a feeder-free condition. ES-IMDM was supplemented with 15% serum, 10^5 U/100 ml of LIF (ESGRO, Millipore, Calif.) and 0.0124% monothioglycerol (MTG; Sigma Aldrich). Cells were grown for 3-5 days with change of medium every day. For inducing differentiation in monolayer culture and to determine the effect of Gö6983 in preventing differentiation, E14 cells were cultured on gelatin-coated plastics for 8 days without LIF. Details of experiments performed at clonal-density are described herein. To maintain E14 cells with Gö6983, serum supplemented ES-IMDM was used in the presence of 5 μM Gö6983 and was passed after every 3-5 days. For all assays involving elucidation of different signaling mechanism responsible for maintenance of pluripotency, cells from a ˜70% confluent ES culture plate were washed two times with 1× phosphate-buffered saline (PBS), trypsinized and plated on a 6-well tissue culture plate and treated with or without LIF or Gö6983 or different inhibitors for ˜10 hours followed by preparation of protein lysates and RNA. The PKCζ knocked-down E14 cells that were generated in this study were maintained in serum supplemented ES-IMDM on gelatin-coated plates in the absence of Gö6983 or LIF or any other inhibitor and passed after 3-5 days. […]

The test system of another data set is p90Rsk1 (Rsk1). The data set is described as follows: Phosphorylation of p90Rsk1. In kind it is cell-based, mouse. As to conditions: Gö6983 alone. As to the method:
Western Blot Analysis. Whole cell lysates were prepared in SDS-gel loading buffer and resolved by 10% PAGE. The antibodies used for this study included β-actin Clone AC-15 from Sigma; p-STAT3 (Tyr705), p-p44/42 MAPK (tyr202/tyr204), p44/42 MAPK, GSK3β, Phospho Akt (Ser473), Akt, p-NFκβ p65 (Ser536), c-Myc, p-c-Myc (Thr58/Ser62), p-p90RSK (Thr359/Ser363), RSK1, Suz12 (D39F6), and Ezh2 (AC22) from Cell Signaling Technology; STAT3 (C-20), Oct-4 (C-10), Nanog (M-149), PKC α (C-20), PKC βI (C-16), PKC βII (C-18), PKC γ (C-19), PKC δ (C-20), PKC ζ (c-20), p-PKC ζ (Thr 410)-R, p-NFκβ p65 (ser311), and RelA (p65) from Santa Cruz Biotechnology; p-LGL1/LGL2 (S650/S654), SSEA4and H3K4Me3 from Abcam; LGL2 (M06), clone 4G2 from Abnova; β-Catenin from BD Transduction Laboratories, and H3K27Me3 and H3K9Me3 from Millipore.

The subject of the next data set is E14 cells. The data set can be described thus: Growth under serum free condition (N2B27 medium). In kind it is cell-based, mouse. As for the experimental part: Growth Under Serum Free Condition. E14 cells were maintained in serum-free N2B27 medium containing DMEM/F12 (Invitrogen), Neurobasal media (Invitrogen), B27 supplement (Invitrogen), N2 supplement (Invitrogen), BSA fraction V (Invitrogen), 2-mercaptoethanol (Sigma) and LIF/BMP4 (R&D Systems, Minneapolis, Minn.) with change of medium on alternate days and passed in every 2-4 days. For experiments with Gö6983, ˜5×10^4 E14 cells were plated on each well of a gelatin-coated 6-well plate having N2B27 medium without LIF/BMP4 and with or without 5 μM Gö6983 and cultured for 3-4 days before passing. Cells were analyzed for expression of different markers (by RT-PCR or immunofluorescence study). For experiments at clonal density, initially, E14 cells were cultured at high density in N2B27 medium with Gö6983 alone for 4 passages, then ˜200 cells were plated in each wells of a 96-well plate with Gö6983 in N2B27 and cultured for 7 more days. After 7 days, colonies were analyzed for Oct4 staining.

For a further data set, the system named is STAT3. The data set is described as follows: STAT3 phosphorylation, Western blot. Format: cell-based, mouse. As to conditions: E14 cells. As for the experimental part: as §1
A further data set deals with NF-κB. The data set is described as follows: NF-κB5X-Luc reporter activation. Conditions: E14 cells. Format: cell-based, mouse. As for the experimental part: Analysis of NF-κB5X-Luc Reporter Activation. E14 ES or PKCζkd cells (2-4×10^4) were seeded on 24-well plates […]. Cells were transfected with 1 μg of plasmid ([…] NF-kB cis-Reporting System, Stratagene) in OPTI-MEM. Transfection mixture was removed after 5 hours with appropriate media. Luciferase activity was measured 24 hours post-transfection and expressed relative to total protein present in the whole cell lysate.

Another data set deals with E14 ES cells. The data set is described as follows: ES cell culture in the absence of LIF (undifferentiated state, marker expression). Format: cell-based, mouse. As for the experimental part:
E14 ES Cell Cultures. Cells were grown in ES-IMDM media (Lonza, Walkersville, Md.) in a feeder-free condition. ES-IMDM was supplemented with 15% serum, 10^5 U/100 ml of LIF (ESGRO, Millipore, Calif.) and 0.0124% monothioglycerol (MTG; Sigma Aldrich). Cells were grown for 3-5 days with change of medium every day. For inducing differentiation in monolayer culture and to determine the effect of Gö6983 in preventing differentiation, E14 cells were cultured on gelatin-coated plastics for 8 days without LIF. Details of experiments performed at clonal-density are described herein. To maintain E14 cells with Gö6983, serum supplemented ES-IMDM was used in the presence of 5 μM Gö6983 and was passed after every 3-5 days. For all assays involving elucidation of different signaling mechanism responsible for maintenance of pluripotency, cells from a ˜70% confluent ES culture plate were washed two times with 1× phosphate-buffered saline (PBS), trypsinized and plated on a 6-well tissue culture plate and treated with or without LIF or Gö6983 or different inhibitors for ˜10 hours followed by preparation of protein lysates and RNA. The PKCζ knocked-down E14 cells that were generated in this study were maintained in serum supplemented ES-IMDM on gelatin-coated plates in the absence of Gö6983 or LIF or any other inhibitor and passed after 3-5 days. For the experiments herein, cells were continuously cultured at least for 5 consecutive passages (>18 days) on gelatin-coated plates without significant differentiation.
Quantitative RT-PCR Analysis. RNA was extracted from different cell samples with TRIZOL reagent (Invitrogen). cDNA was prepared by annealing RNA (1 μg) with 250 ng of a 5:1 mixture of random and oligo(dT) primers heated at 68° C. for 10 minutes. This was followed by incubation with Moloney murine leukemia virus reverse transcriptase (50 units) (Invitrogen, Carlsbad, Calif.) combined with 10 mM DTT, RNasin (PROMEGA, Madison, Wis.), and 0.5 mM dNTPs at 42° C. for 1 hour. Reactions were diluted to a final volume of 100 μl and heat inactivated at 97° C. for 5 minutes. Twenty μl PCR reactions contained 2 μl cDNA, 10 μl SYBR Green Master Mix (Applied Biosystems, Foster City, Calif.) and corresponding primer sets. Relative expression levels were determined from a standard curve of serial dilutions of proliferating ES cell cDNA samples and were normalized to the expression of glyceraldehyde-3-phosphate dehydrogenase (GAPDH). At least three independent experiments were done for each set of data.
Immunostaining. Immunostaining of Oct4, and Nanog expression was performed using standard protocols. Briefly, ES cells were fixed in 4% paraformaldehyde/4% sucrose, permeabilized with 0.1% TRITON X 100 (Sigma). Cells were blocked by adding 1% fish gelatin (Sigma, St. Louis, Mo.) and incubated overnight at 4° C. with 200 μl of primary antibodies. Fluorescent-conjugated secondary antibodies (ALEXA FLUOR 488, and ALEXA FLUOR 568, Molecular Probes, Invitrogen) were used at 1:250 dilutions to visualize cells. Images were captured using a LEICA fluorescence microscope.

Entries after “also recorded” stand apart in the source; their conditions may differ.

In the case of `COc1ccc2c(c1)c(C1=C(c3c[nH]c4ccccc34)C(=O)NC1=O)cn2CCCN(C)C` [Gö6983, 3-[1-[3-(dimethylamino)propyl]5-methoxy-1H-indol-3-yl]-4-(1H-indol-3-yl)-1H-pyrrole-2,5-dione], the “undifferentiated morphology and SSEA4 expression of human ES cells” value in data set [1] (MEF-conditioned medium, multiple passages) was “maintained their undifferentiated morphology and expression of pluripotency marker”. Moreover, the “SSEA4 expression in H9 colonies” value in data set [1] (versus TeSR1 medium or conditioned medium with bFGF, FIG. 5) is “sustained high levels of SSEA4 expression; also recorded: comparable”. In addition, in data set [1] (versus conditioned medium alone), the “Oct4 protein expression in human ES cells” value was “High levels of Oct4 protein expression”. Besides, in the data set with ERK1/2, the ERK1/2 phosphorylation entry is “did not inhibit”. The “phosphorylation of Rsk1” value in the data set with p90Rsk1 (Rsk1) was “not inhibited”. The “cell survival when propagated at clonal density in N2B27 medium” value in the data set with E14 cells (N2B27 medium plus Gö6983, clonal density) was “poor”. In addition, in the data set on E14 cells (N2B27 without serum, LIF, BMP4, FIG. 1C), the “induction of inhibitor-of-differentiation genes” value is listed as “not associated with the induction of inhibitor-of-differentiation genes”. Besides, the “undifferentiated state in N2B27 medium” value in the data set on E14 cells (without serum, LIF and BMP4) was “could be maintained in an undifferentiated state”. The STAT3 phosphorylation entry in the data set on STAT3 is on record as “did not induce”. Moreover, the “NFκ5x-Luc reporter gene activation” value with NF-κB is reported as “strongly inhibited”. For the same molecule, the “ES cell differentiation at 2.5 μM” value with E14 ES cells (2.5 μM, without LIF) is listed as “almost completely inhibited”. For the same molecule, the “concentration that efficiently maintained undifferentiated ES cell colony / inhibits mouse ES cell differentiation” value in the data set on E14 ES cells (concentration profile analysis, absence of LIF) was no less than 2.5 µM. The “ES cell differentiation in the absence of LIF” value in the data set with E14 ES cells (mouse ES cells, without LIF) is “did not differentiate and maintained their undifferentiated colony morphology”. In addition, the “induction of developmental genes required for lineage commitment” value with E14 ES cells (quantitative RT-PCR, FIG. 1B) was “did not occur”. For the same molecule, the “expression of pluripotency markers Oct4, Nanog, Sox2 and Rex-1” value in the data set on E14 ES cells (quantitative RT-PCR, without LIF, FIG. 1A) is on record as “maintained the expression of pluripotency markers”. Besides, in the data set with E14 ES cells (serum from different sources), the “ES cell pluripotency in media with different batches of fetal bovine serum” value was “maintained ES cell pluripotency in all culture media irrespective of serum source”.
